Values quoted from earlier work in patent publication US20020004046A1, “Combination therapy of respiratory diseases using antibodies” (priority 2000, published 2002).

Assays:
[1] = compared with untreated patients

Compound: NC(=O)c1ncn([C@@H]2O[C@H](CO)[C@@H](O)[C@H]2O)n1 [ribavirin]
- level of secondary infection following cessation of treatment [1]: significantly higher
- bioavailability (given orally): about 45%
- time of peak concentrations in plasma (in vivo, po): 1 to 2 h
